In data set [1] the target is T1, human mGluR5a receptor (Homo sapiens, UniProt P41594).
T1 construct: host or cells: HEK293A (monoclones H10H and H12H)
Nature of the data set: Functional Assay 2: Ca2+ mobilization, HEK cells with human mGluR5a receptor (H10H cell line). It is filed as cell-based. As to conditions: H10H cell line; for EC50: glutamate EC20; for Emax: HEK293, maximum average response at a single concentration, relative to glutamate ECMax. As for the experimental part:
Human mGluR5a cDNA in pCMV6-XL6 mammalian expression plasmid was purchased from OriGene Technologies, Inc. (catalogue number SC326357) and subcloned into pcDNA3.1(−). […] Monoclones were named for the species (“H” for human) plus the location on the plate (e.g. “10H”).
The following day, the growth medium was removed and the cells were washed with assay buffer containing 1× Hank's balanced salt solution (Invitrogen, Carlsbad, Calif.), 20 mM HEPES, 2.5 mM probenecid, pH 7.4 and left with 20 μL of this reagent. Following this step, the cells were loaded with calcium indicator dye, fluo-4 AM, to a final concentration of 2 μM and incubated for 40-45 min at 37° C. The dye solution was removed and replaced with assay buffer. Cell plates were held for 10-15 min at room temperature and were then loaded into the Functional Drug Screening System 6000 (FDSS 6000, Hamamatsu, Japan).
After establishment of a fluorescence baseline for about 3 seconds, the compounds of the present invention were added to the cells, and the response in cells was measured. 2.3 minutes later an EC20 concentration of the mGluR5 receptor agonist glutamate was added to the cells, and the response of the cells was measured for about 1.7 minutes. All test compounds were dissolved and diluted to a concentration of 10 mM in 100% DMSO and then serially diluted into assay buffer for a 2× stock solution in 0.6% DMSO; stock compounds were then added to the assay for a final DMSO concentration of 0.3% after the first addition to the assay well. Calcium fluorescence measures were recorded as fold over basal fluorescence; raw data was then normalized to the maximal response to glutamate.
The concentration-response curves of compounds of the present invention, obtained in the presence of EC20 of mGluR5 receptor agonist glutamate to determine positive allosteric modulation, were generated using Microsoft Excel with IDBS XLfit add-ins. The raw data file containing all time points was used as the data source in the analysis template. This was saved by the FDSS as a tab-delimitted text file. Data were normalized using a static ratio function (F/F0) for each measurement of the total 350 values per well divided by each well's initial value. […] This is sufficient time to capture the peak amplitude of the cellular calcium response. […] Each of the three values collected at each concentration of test compound were weighted evenly. […] These two methods are in good agreement for curves with a clear plateau at the high concentration range.

SMILES strings stand for the structures. Where only a bound is given, the exact number is not on record here.

T1 sequence (P41594 21-1180 isoform P41594-2 limits assumed): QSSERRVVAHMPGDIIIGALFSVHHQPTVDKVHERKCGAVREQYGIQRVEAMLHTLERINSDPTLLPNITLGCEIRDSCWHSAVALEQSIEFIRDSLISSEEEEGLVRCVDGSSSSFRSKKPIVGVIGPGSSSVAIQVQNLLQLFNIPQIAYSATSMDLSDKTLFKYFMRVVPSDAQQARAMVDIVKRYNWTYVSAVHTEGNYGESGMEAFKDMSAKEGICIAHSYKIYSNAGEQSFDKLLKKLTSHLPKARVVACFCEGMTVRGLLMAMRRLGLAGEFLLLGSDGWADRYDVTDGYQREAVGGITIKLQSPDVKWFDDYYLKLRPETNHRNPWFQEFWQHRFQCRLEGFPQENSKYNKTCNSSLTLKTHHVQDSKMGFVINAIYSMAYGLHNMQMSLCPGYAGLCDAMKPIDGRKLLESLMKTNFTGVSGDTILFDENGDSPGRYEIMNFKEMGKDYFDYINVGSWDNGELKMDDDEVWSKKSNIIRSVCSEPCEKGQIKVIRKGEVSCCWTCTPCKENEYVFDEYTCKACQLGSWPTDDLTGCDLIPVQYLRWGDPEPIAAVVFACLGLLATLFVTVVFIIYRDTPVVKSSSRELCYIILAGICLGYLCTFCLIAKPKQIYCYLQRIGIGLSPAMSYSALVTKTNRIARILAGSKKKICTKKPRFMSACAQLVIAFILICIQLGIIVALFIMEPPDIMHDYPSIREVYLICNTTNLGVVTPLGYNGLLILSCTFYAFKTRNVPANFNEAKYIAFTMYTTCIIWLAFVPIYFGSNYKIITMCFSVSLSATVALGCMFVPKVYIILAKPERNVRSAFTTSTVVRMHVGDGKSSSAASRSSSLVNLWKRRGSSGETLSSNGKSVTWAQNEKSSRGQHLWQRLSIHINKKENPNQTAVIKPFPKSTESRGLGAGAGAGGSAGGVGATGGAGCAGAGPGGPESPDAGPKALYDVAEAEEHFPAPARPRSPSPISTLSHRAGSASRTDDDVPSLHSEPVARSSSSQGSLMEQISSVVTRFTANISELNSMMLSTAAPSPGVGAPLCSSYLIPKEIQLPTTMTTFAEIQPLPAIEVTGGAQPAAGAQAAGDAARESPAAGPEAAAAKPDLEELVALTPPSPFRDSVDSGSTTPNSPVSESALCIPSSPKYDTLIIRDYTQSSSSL

In turn, `O=C1c2sc(OCc3ccccc3)nc2CCN1Cc1ccc(F)cc1F` [Compound 13, 5-[(2,4-difluorophenyl)methyl]-6,7-dihydro-2-(phenylmethoxy)-thiazolo[5,4-c]pyridin-4(5H)-one] came in with a melting point of 108 to 111.2 °C. In data set [1], this compound had a 50% effective concentration (EC50) of 1860 nM and an Emax of 48%.
Compound `O=C1c2sc(OCc3cccc(F)c3)nc2CCN1c1ccc(F)cc1` [Compound 19, 5-(4-fluorophenyl)-2-[(3-fluorophenyl)methoxy]-6,7-dihydro-thiazolo[5,4-c]pyridin-4(5H)-one] came in with a melting point of 127.4 to 128.9 °C. In data set [1], this compound showed an EC50 of 214 nM and a maximal effect (Emax) of 38%.
The matching figures for `N#Cc1cccc(COc2nc3c(s2)C(=O)N(c2ccc(F)cc2F)CC3)c1` [Compound 20, 3-[[[5-(2,4-difluorophenyl)-4,5,6,7-tetrahydro-4-oxothiazolo[5,4-c]pyridin-2-yl]oxy]methyl]-benzonitrile]: 112.9 °C, 158 nM and 25%.
Taken in the same sequence, the figures for `Cc1cccc(COc2nc3c(s2)C(=O)N(c2ccc(F)cc2F)CC3)c1` [Compound 21, 5-(2,4-difluorophenyl)-6,7-dihydro-2-[(3-methylphenyl)methoxy]-thiazolo[5,4-c]pyridin-4(5H)-one] were 95.2 to 97.2 °C, 331 nM and 54%.
Taken in the same sequence, the figures for `O=C1c2sc(OCc3ccccc3F)nc2CCN1c1ccc(F)cc1` [Compound 22, 5-(4-fluorophenyl)-2-[(2-fluorophenyl)methoxy]-6,7-dihydro-thiazolo[5,4-c]pyridin-4(5H)-one] were 91 to 92.5 °C, 372 nM and 45%.
`O=C1c2sc(COc3cccc(F)c3)nc2CCN1c1ccc(F)cc1` [Compound 25, 2-[(3-fluorophenoxy)methyl]-5-(4-fluorophenyl)-6,7-dihydro-thiazolo[5,4-c]pyridin-4(5H)-one]: the melting point came to 152.8 °C. Besides, in data set [1], the midpoint of the response, the EC50, lay at 174 nM and the maximal response (Emax) amounted to 63%.
The matching figures for `O=C1c2sc(COc3ccccc3)nc2CCN1c1ccc(F)cc1F` [Compound 29, 5-(2,4-difluorophenyl)-6,7-dihydro-2-(phenoxymethyl)-thiazolo[5,4-c]pyridin-4(5H)-one]: 268.9 to 284.1 °C, 97.7 nM and 81%.
Turning to `O=C1c2sc(COc3ccccc3F)nc2CCN1c1ccc(F)cc1` [Compound 31, 2-[(2-fluorophenoxy)methyl]-5-(4-fluorophenyl)-6,7-dihydro-thiazolo[5,4-c]pyridin-4(5H)-one], the melting point is greater than 280 °C. In data set [1], this compound gave an EC50 of 282 nM and a maximum response (Emax) of 71%.
Taken in the same sequence, the figures for `O=C1c2sc(COc3ccc(F)cc3)nc2CCN1c1ccc(F)cc1F` [Compound 32, 5-(2,4-difluorophenyl)-2-[(4-fluorophenoxy)methyl]-6,7-dihydro-thiazolo[5,4-c]pyridin-4(5H)-one] were greater than 280 °C, 224 nM and 81%.
Consider `C[C@@H](N1CCc2nc(COc3ccccc3F)sc2C1=O)C(C)(C)C` [Compound 33, 2-[(2-fluorophenoxy)methyl]-6,7-dihydro-5-[(1R)-1,2,2-trimethylpropyl]-thiazolo[5,4-c]pyridin-4(5H)-one], for which the melting point is 98.4 to 99.6 °C. Also, in data set [1], the EC50 is greater than 30200 nM and the maximal effect (Emax) worked out at 38%.
As for `COc1ccccc1N1CCc2nc(COc3cccc(F)c3)sc2C1=O` [Compound 37, 2-[(3-fluorophenoxy)methyl]-6,7-dihydro-5-(2-methoxyphenyl)-thiazolo[5,4-c]pyridin-4(5H)-one], the melting point lay in the range of 61.2 to 64.2 °C. In data set [1], this compound gave an EC50 of 871 nM and a maximal effect (Emax) of 83%.
In the case of `CN1CCCc2nc(COc3ccccc3)sc2C1=O` [Compound 38, 5,6,7,8-tetrahydro-5-methyl-2-(phenoxymethyl)-4H-thiazolo[5,4-c]azepin-4-one], the melting point came to 105.9 °C. In data set [1], a half-maximal effect (EC50) was put at 1070 nM and the maximal response (Emax) was found to be 70%.
Compound `O=C1c2sc(COc3ccccc3)nc2CCN1CC1CC1` [Compound 39, 5-(cyclopropylmethyl)-6,7-dihydro-2-(phenoxymethyl)-thiazolo[5,4-c]pyridin-4(5H)-one] yielded a melting point of 292.6 to 302.9 °C. It took 209 nM to reach a half-maximal effect in data set [1] (EC50).
With `O=C1c2sc(COc3cccc(F)c3)nc2CCN1C1CC1` [Compound 40, 5-cyclopropyl-2-[(3-fluorophenoxy)methyl]-6,7-dihydro-thiazolo[5,4-c]pyridin-4(5H)-one], the melting point is 243.9 to 245.7 °C. In addition, in data set [1], the midpoint of the response, the EC50, lay at 1550 nM and the Emax came to 39%.
Regarding `O=C1c2sc(COc3cccc(F)c3)nc2CCN1CC1CC1` [Compound 41, 5-(cyclopropylmethyl)-2-[(3-fluorophenoxy)methyl]-6,7-dihydro-thiazolo[5,4-c]pyridin-4(5H)-one], the melting point is 275.4 to 277.8 °C. Also, in data set [1], a half-maximal effect (EC50) was put at 224 nM and the Emax was 66%.
Taken in the same sequence, the figures for `O=C1c2sc(COc3ccccc3F)nc2CCN1CC1CC1` [Compound 42, 5-(cyclopropylmethyl)-2-[(2-fluorophenoxy)methyl]-6,7-dihydro-thiazolo[5,4-c]pyridin-4(5H)-one] were 85.3 to 87.1 °C, 1100 nM and 67%.
Taken in the same sequence, the figures for `O=C1c2sc(COc3ccc(F)cc3)nc2CCN1CC1CC1` [Compound 43, 5-(cyclopropylmethyl)-2-[(4-fluorophenoxy)methyl]-6,7-dihydro-thiazolo[5,4-c]pyridin-4(5H)-one] were 254 to 259.1 °C, 759 nM and 59%.
The matching figures for `O=C1c2sc(COc3ccccc3)nc2CCN1C1CC1` [Compound 44, 5-cyclopropyl-6,7-dihydro-2-(phenoxymethyl)-thiazolo[5,4-c]pyridin-4(5H)-one]: 252.1 to 255.3 °C, 4370 nM and 36%.
`Cc1cccc(N2CCc3nc(COc4ccccc4)sc3C2=O)n1` [Compound 46, 6,7-dihydro-5-(6-methyl-2-pyridinyl)-2-(phenoxymethyl)-thiazolo[5,4-c]pyridin-4(5H)-one]: the melting point was 155.5 °C. In data set [1], the EC50 is 550 nM and the Emax came to 84%.
The matching figures for `O=C1c2sc(COc3ccc(F)cc3)nc2CCN1c1ccc(F)cn1` [Compound 53, 2-[(4-fluorophenoxy)methyl]-5-(5-fluoro-2-pyridinyl)-6,7-dihydro-thiazolo[5,4-c]pyridin-4(5H)-one]: 185.8 to 186.8 °C, 295 nM and 56%.
In turn, `O=C1c2sc(COc3cccc(F)c3)nc2CCN1c1ccc(F)cn1` [Compound 54, 2-[(3-fluorophenoxy)methyl]-5-(5-fluoro-2-pyridinyl)-6,7-dihydro-thiazolo[5,4-c]pyridin-4(5H)-one] yielded a melting point of 125.8 to 126.4 °C. In data set [1], this compound had an EC50 of 288 nM and an Emax of 79%.
`O=C1c2sc(COc3ccccc3F)nc2CCN1c1ccc(F)cn1` [Compound 55, 2-[(2-fluorophenoxy)methyl]-5-(5-fluoro-2-pyridinyl)-6,7-dihydro-thiazolo[5,4-c]pyridin-4(5H)-one] came in with a melting point of 151.8 to 153 °C. In data set [1], this compound gave an EC50 of 550 nM and an Emax of 63%.
The matching figures for `O=C1c2sc(COc3ccccc3)nc2CCN1c1cncc(F)c1` [Compound 57, 5-(5-fluoro-3-pyridinyl)-6,7-dihydro-2-(phenoxymethyl)-thiazolo[5,4-c]pyridin-4(5H)-one]: 167.6 °C, 1700 nM and 62%.
Compound `O=C1c2sc(COc3ccccc3F)nc2CCN1c1ccc(F)cc1F` [Compound 59, 5-(2,4-difluorophenyl)-2-[(2-fluorophenoxy)methyl]-6,7-dihydro-thiazolo[5,4-c]pyridin-4(5H)-one] had a melting point of 100.1 to 105.2 °C. In data set [1], this compound showed an EC50 of 195 nM and a maximum response (Emax) of 76%.

For the origin of these results see patent US9040707B2, “Bicyclic thiazoles as allosteric modulators of mGluR5 receptors” (Janssen Pharmaceutica NV, priority 2009, dated 2015).
